Reference: patent publication US20240025887A1, “THIENYL AND CYCLOALKYL AMINOPYRIMIDINE COMPOUNDS AS INHIBITORS OF NUAK KINASES, COMPOSITIONS AND USES THEREOF” (Ontario Institute for Cancer Research (OICR), priority 2021, published 2024)
pIC50: −log10 of the molar value.

Columns and labels:
Assay type in all cases: biochemical
NUAK2 (h) = biological target: T1, NUAK2 (h) (Homo sapiens, UniProt Q9H093); assay: NUAK2 enzymatic assay (radiometric, Eurofins); conditions: for pIC50: radiometric, full-length recombinant enzyme; for AUR-A (IC50, nM)/NUAK2 (IC50, nM): NUAK2 selectivity over Aurora-A, ratio of IC50s
T1 construct: This assay was done radiometrically using full-length, recombinant enzyme; purchased Eurofins
T1 sequence (Q9H093 1-628): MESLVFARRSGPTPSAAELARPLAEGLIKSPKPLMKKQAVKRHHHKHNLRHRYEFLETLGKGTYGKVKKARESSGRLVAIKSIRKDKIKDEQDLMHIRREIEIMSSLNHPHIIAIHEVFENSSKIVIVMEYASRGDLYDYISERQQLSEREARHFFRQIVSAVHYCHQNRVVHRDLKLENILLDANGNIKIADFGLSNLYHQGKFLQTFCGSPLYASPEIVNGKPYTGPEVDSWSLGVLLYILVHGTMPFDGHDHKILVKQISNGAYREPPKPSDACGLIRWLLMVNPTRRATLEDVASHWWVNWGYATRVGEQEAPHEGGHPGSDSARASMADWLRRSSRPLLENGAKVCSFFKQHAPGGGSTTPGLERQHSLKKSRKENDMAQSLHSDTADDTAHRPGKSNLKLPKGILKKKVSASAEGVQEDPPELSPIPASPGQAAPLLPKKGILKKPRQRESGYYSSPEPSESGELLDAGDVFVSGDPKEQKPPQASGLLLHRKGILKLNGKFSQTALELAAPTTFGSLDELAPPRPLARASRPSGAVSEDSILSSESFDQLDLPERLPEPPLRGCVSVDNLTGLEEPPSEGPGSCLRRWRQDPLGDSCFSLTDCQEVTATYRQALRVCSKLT
Procedure: (§1) To identify small molecule NUAK inhibitors, a biochemical NUAK2 enzymatic assay was outsourced to Eurofins. This assay was done radiometrically using full-length, recombinant enzyme. NUAK2 (h) was incubated with 8 mM MOPS pH 7.0, 0.2 mM EDTA, 300 μM […], 10 mM magnesium acetate and […] (specific activity and concentration as required). The reaction was initiated by the addition of the Mg/ATP mix. After incubation for 40 minutes at room temperature, the reaction was stopped by the addition of phosphoric acid to a concentration of 0.5%. 10 μL of the reaction was then spotted onto a P30 filter mat and washed four times for 4 minutes in 0.425% phosphoric acid and once in methanol prior to drying and scintillation counting. Compounds were routinely counter screened against Aurora A and NUAK1. The results are shown in Table 1 where IC50s are reported the following ranges: A: 0.1-10 nM; B: 11-100 nM; C: 101-1000 nM; D: >1000 nM for the compounds of Formula I)

NUAK1 = biological target: T2, NUAK1 (Homo sapiens, UniProt O60285); assay: NUAK1 counter screen
T2 sequence (O60285 1-661): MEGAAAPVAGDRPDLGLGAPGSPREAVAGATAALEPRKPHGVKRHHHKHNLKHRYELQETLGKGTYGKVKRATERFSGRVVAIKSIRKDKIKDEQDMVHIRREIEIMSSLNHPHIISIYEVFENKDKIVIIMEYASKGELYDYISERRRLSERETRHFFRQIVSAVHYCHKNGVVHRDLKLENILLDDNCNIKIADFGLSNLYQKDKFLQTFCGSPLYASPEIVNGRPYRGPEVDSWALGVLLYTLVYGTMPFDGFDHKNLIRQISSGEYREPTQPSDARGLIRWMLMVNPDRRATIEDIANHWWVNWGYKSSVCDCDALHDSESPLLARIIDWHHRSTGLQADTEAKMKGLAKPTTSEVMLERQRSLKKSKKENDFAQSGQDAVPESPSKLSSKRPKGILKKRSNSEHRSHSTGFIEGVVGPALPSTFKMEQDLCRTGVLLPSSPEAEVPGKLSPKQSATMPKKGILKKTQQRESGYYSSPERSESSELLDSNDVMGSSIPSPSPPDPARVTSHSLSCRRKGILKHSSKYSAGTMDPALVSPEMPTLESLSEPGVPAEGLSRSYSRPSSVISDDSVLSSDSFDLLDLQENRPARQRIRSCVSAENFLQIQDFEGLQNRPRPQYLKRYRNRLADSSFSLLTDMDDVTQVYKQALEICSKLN
Procedure: as §1

Aurora A = biological target: T3, Aurora A (Homo sapiens, UniProt O14965); assay: Aurora A counter screen; conditions: read-out: AUR-A (IC50)
T3 sequence (O14965 1-403): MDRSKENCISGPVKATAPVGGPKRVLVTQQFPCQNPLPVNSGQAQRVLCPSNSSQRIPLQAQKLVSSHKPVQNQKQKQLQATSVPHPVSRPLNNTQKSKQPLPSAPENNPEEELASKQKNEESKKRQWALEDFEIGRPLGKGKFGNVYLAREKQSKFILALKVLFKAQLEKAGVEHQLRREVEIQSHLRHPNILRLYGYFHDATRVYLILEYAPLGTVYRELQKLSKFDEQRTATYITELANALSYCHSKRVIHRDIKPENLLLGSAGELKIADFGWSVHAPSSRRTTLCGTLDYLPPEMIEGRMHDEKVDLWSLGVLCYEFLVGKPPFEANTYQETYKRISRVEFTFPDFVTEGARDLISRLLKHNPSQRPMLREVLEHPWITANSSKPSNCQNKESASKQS
Procedure: as §1

Compound | pIC50 (NUAK2 (h)) | pIC50 (NUAK1) | pIC50 (Aurora A) | AUR-A (IC50, nM)/NUAK2 (IC50, nM) (NUAK2 (h))
CN1CCN(C2CCN(c3ccc(Nc4ncc(Cl)c(N[C@@H]5CCC[C@@H]5C(N)=O)n4)c(OC(F)F)c3)CC2)CC1 [Compound I-83, (1S,2R)-2-((5-chloro-2-((2-(difluoromethoxy)-4-(4-(4-methylpiperazin-1-yl)piperidin-1-yl)phenyl)amino)pyrimidin-4-yl)amino)cyclopentane-1-carboxamide] | 7.00 to 7.96 | 7.00 to 7.96 | 6.00 to 7.00 | –
NC(=O)c1sccc1Nc1nc(Nc2ccc(N3CCN4CCOC[C@H]4C3)cc2OC(F)F)ncc1Cl [Compound I-45, (R)-3-((5-chloro-2-((2-(difluoromethoxy)-4-(hexahydropyrazino[2,1-c][1,4]oxazin-8(1H)-yl)phenyl)amino)pyrimidin-4-yl)amino)thiophene-2-carboxamide] | 7.00 to 7.96 | 7.00 to 7.96 | 6.00 to 7.00 | –
C[C@@H]1CN(C2CCN(c3ccc(Nc4ncc(C(F)(F)F)c(Nc5ccsc5C(N)=O)n4)c(OC(F)F)c3)CC2)C[C@H](C)N1C [Compound I-67, 3-((2-((2-(difluoromethoxy)-4-(4-((3R,5S)-3,4,5-trimethylpiperazin-1-yl)piperidin-1-yl)phenyl)amino)-5-(trifluoromethyl)pyrimidin-4-yl)amino)thiophene-2-carboxamide] | 7.00 to 7.96 | 7.00 to 7.96 | 6.00 to 7.00 | –
CN1CCN(C2CCN(c3ccc(Nc4ncc(Cl)c(Nc5ccsc5C(N)=O)n4)c(OC(F)F)c3F)CC2)CC1 [Compound I-40, 3-((5-chloro-2-((2-(difluoromethoxy)-3-fluoro-4-(4-(4-methylpiperazin-1-yl)piperidin-1-yl)phenyl)amino)pyrimidin-4-yl)amino)thiophene-2-carboxamide] | 6.00 to 7.00 | 6.00 to 7.00 | < 6.00 | –
CN1CCCN(C2CCN(c3ccc(Nc4ncc(Cl)c(Nc5ccsc5C(N)=O)n4)c(OC(F)F)c3)CC2)CC1 [Compound I-72, 3-((5-chloro-2-((2-(difluoromethoxy)-4-(4-(4-methyl-1,4-diazepan-1-yl)piperidin-1-yl)phenyl)amino)pyrimidin-4-yl)amino)thiophene-2-carboxamide] | 7.00 to 7.96 | 7.00 to 7.96 | 6.00 to 7.00 | –
Cc1c(Nc2ncc(Cl)c(Nc3ccsc3C(N)=O)n2)ccc(N2CCN(C)CC2)c1F [Compound C-5, reference compound] | 8.00 to 10.00 | 7.00 to 7.96 | 6.00 to 7.00 | 14
CN1CCN(c2ccc(Nc3ncc(Cl)c(Nc4ccsc4C(N)=O)n3)c(Cl)c2F)CC1 [Compound C-4, reference compound] | 8.00 to 10.00 | 8.00 to 10.00 | 6.00 to 7.00 | 50
CN1CCN(C2CCN(c3ccc(Nc4ncc(C#N)c(Nc5ccsc5C(N)=O)n4)c(OC(F)F)c3)CC2)CC1 [Compound I-80, 3-((5-cyano-2-((2-(difluoromethoxy)-4-(4-(4-methylpiperazin-1-yl)piperidin-1-yl)phenyl)amino)pyrimidin-4-yl)amino)thiophene-2-carboxamide] | 7.00 to 7.96 | 7.00 to 7.96 | 6.00 to 7.00 | –
CN1CCC(N(C)c2ccc(Nc3ncc(Cl)c(Nc4ccsc4C(N)=O)n3)c(OC(F)F)c2)CC1 [Compound I-66, 3-((5-chloro-2-((2-(difluoromethoxy)-4-(methyl(1-methylpiperidin-4-yl)amino)phenyl)amino)pyrimidin-4-yl)amino)thiophene-2-carboxamide] | 7.00 to 7.96 | 7.00 to 7.96 | 6.00 to 7.00 | –
CCN1CCN(c2ccc(Nc3ncc(Cl)c(Nc4ccsc4C(N)=O)n3)c(OC(F)F)c2)CC1 [Compound I-5, 3-((5-chloro-2-((2-(difluoromethoxy)-4-(4-ethylpiperazin-1-yl)phenyl)amino)pyrimidin-4-yl)amino)thiophene-2-carboxamide] | 7.00 to 7.96 | 7.00 to 7.96 | < 6.00 | –
Cc1cnc(Nc2ccc(N3CCN(C)CC3)cc2OC(F)F)nc1Nc1ccsc1C(N)=O [Compound I-4, 3-((2-((2-(difluoromethoxy)-4-(4-methylpiperazin-1-yl)phenyl)amino)-5-methylpyrimidin-4-yl)amino)thiophene-2-carboxamide] | 7.00 to 7.96 | 7.00 to 7.96 | < 6.00 | –
COCCN1CCN(c2ccc(Nc3ncc(Cl)c(Nc4ccsc4C(N)=O)n3)c(OC(F)F)c2)CC1 [Compound I-50, 3-((5-chloro-2-((2-(difluoromethoxy)-4-(4-(2-methoxyethyl)piperazin-1-yl)phenyl)amino)pyrimidin-4-yl)amino)thiophene-2-carboxamide] | 7.00 to 7.96 | 7.00 to 7.96 | 7.00 to 7.96 | –
NC(=O)c1sccc1Nc1nc(Nc2ccc(N3CCC(N4CCCCC4)CC3)cc2OC(F)F)ncc1C(F)(F)F [Compound I-76] | 8.00 to 10.00 | 7.00 to 7.96 | 6.00 to 7.00 | –
C[C@@H]1CN(C2CCN(c3ccc(Nc4ncc(Cl)c(Nc5ccsc5C(N)=O)n4)c(OC(F)F)c3)CC2)C[C@@H](C)N1C [Compound I-69, 3-((5-chloro-2-((2-(difluoromethoxy)-4-(4-((3R,5R)-3,4,5-trimethylpiperazin-1-yl)piperidin-1-yl)phenyl)amino)pyrimidin-4-yl)amino)thiophene-2-carboxamide] | 8.00 to 10.00 | 7.00 to 7.96 | 7.00 to 7.96 | –
CN1CCN(c2ccc(Nc3ncc(Cl)c(Nc4ccsc4C(N)=O)n3)c(C(F)(F)F)c2)CC1 [Compound I-46, 3-((5-chloro-2-((4-(4-methylpiperazin-1-yl)-2-(trifluoromethyl)phenyl)amino)pyrimidin-4-yl)amino)thiophene-2-carboxamide] | 7.00 to 7.96 | 7.00 to 7.96 | < 6.00 | –
NC(=O)c1sccc1Nc1nc(Nc2ccc(N3CCC(N4CCCC4)CC3)cc2OC(F)F)ncc1Cl [Compound I-48, 3-((5-chloro-2-((2-(difluoromethoxy)-4-(4-(pyrrolidin-1-yl)piperidin-1-yl)phenyl)amino)pyrimidin-4-yl)amino)thiophene-2-carboxamide] | 8.00 to 10.00 | 8.00 to 10.00 | 7.00 to 7.96 | –
NC(=O)c1sccc1Nc1nc(Nc2ccc(N3CCN4CCOC[C@@H]4C3)cc2OC(F)F)ncc1Cl [Compound I-49, (S)-3-((5-chloro-2-((2-(difluoromethoxy)-4-(hexahydropyrazino[2,1-c][1,4]oxazin-8(1H)-yl)phenyl)amino)pyrimidin-4-yl)amino)thiophene-2-carboxamide] | 7.00 to 7.96 | 7.00 to 7.96 | 6.00 to 7.00 | –
